Here are results for one molecule from patent US10316019B2, “Method for preparing the anhydrous crystalline form of isoniazid-derived hydrazone, thus produced crystalline polymorph of the anyhydrous form, use thereof for the treatment of alzheimer's disease, parkinsonism and other neurodegenerative disorders, and pharamceutical composition” (FACULDADDES CATÓLICAS, Associação sem fins Lucrativos, …, priority 2014, dated 2019).

The structures appear in SMILES notation.

Series [1] concerns β-amyloid peptide and Zn(II). The experiment in a line: 2D 1H×15N HSQC NMR competition for Zn(II) bound to β-amyloid peptide. It counts as binding.
The subject of series [2] is α-synuclein and Cu(II)/Cu(I). The experiment in a line: 1H NMR competition for Cu(II)/Cu(I) bound to α-synuclein. It counts as binding.
Another series has as its system Wistar male rats. Put plainly: Acute toxicity test, intraperitoneal injection. The conditions noted are these: i.p. up to 300 mg kg^−1, Wistar male rats. It is filed as in vivo.

For `O=C(N/N=C/c1ccc2cccc(O)c2n1)c1ccncc1` [INHHQ, 8-hydroxyquinoline-2-carboxaldehyde isonicotinoyl hydrazone], in series [1] (1D and 2D NMR), the “Direct interaction with β-amyloid peptide” value is given as “does not interact directly”. For the same molecule, the “Effect on Aβ HSQC signals in the presence of Zn(II) (Zn(II)-Aβ interaction)” value in series [1] (INHHQ 4 eq. added to β-amyloid peptide + Zn(II) 1 eq.) is recorded as “partial intensity recovery for all Aβ signals”. In addition, the “Direct interaction with α-synuclein” value in series [2] (1D and 2D NMR) is listed as “does not interact directly”. Besides, the “Effect on α-synuclein methionine 1H NMR signals in the presence of copper (Cu-α-synuclein interaction)” value in series [2] (INHHQ 4 eq. added to α-synuclein + Cu(II)/Cu(I) 1 eq.) is “recovery of the original methionine signals' position”. Moreover, in the series on Wistar male rats (72 h), the Behavioral changes result was “no behavioral changes”. In addition, the “Macroscopic organ abnormalities at dissection” value in the series with Wistar male rats (after sacrifice) is reported as “no macroscopic abnormalities”.
